Consider 2 molecules from US20250108036A1, “COMPOSITIONS FOR REMOVING SENESCENT CELLS AND USES THEREOF” (LIFECEUTIX CO., LTD., priority 2021, published 2025).

The subject of experiment [1] is foreskin cells, replicative senescence (REP). In words: CellTiter-Glo cell viability of replicative senescent foreskin cells (Example 3-2). It is filed as cell-based, human. The settings on record: 3 days. In general terms: In ATP-based viability assays light output follows the ATP content of the culture.
Experiment [2] has as its system p16, p21. In words: p16 and p21 mRNA qRT-PCR in doxorubicin-aged mice (Example 8-2). It is filed as in vivo, C57BL6J mice. Particulars: doxorubicin-aged mice, LX-112 70 mg/kg oral daily 21 days; DOX without LX = 100%. As to the method:
(§1) After adapting 8-week-old male C57BL6J mice (purchased from KRIBB Laboratory Animal Resource Center) to the experimental environment for 1 week, doxorubicin, an anticancer drug, was administered intraperitoneally at a concentration of 10 mg/kg, and mice that were induced to age for more than 10 days were assigned to an experimental group and a control group. LX-112 was mixed with 0.5% CMC-Na solution (purchased from Sigma) and administered orally at a concentration of 70 mg/kg daily for 21 days. The control group was administered only the solution in the same volume. After drug administration was completed, the method described in each Example below was performed.
The mouse was sacrificed in the same manner as in Example 7-2, RNA was extracted from the organ tissue of each region, and qRT-PCR was performed and analyzed using the synthesized cDNA. […] Table 37 calculates the mRNA amounts of p16 and p21 after aging was induced by treatment with the anticancer drug as 100% and compared them with the mRNA amounts of p16 and p21 after treatment with LX-112.
A general note: Real-time PCR tracks product formation cycle by cycle.

Another experiment has as its system IL6. In words: serum IL6 ELISA in doxorubicin-aged mice (Example 8-5). Particulars: doxorubicin-aged mice, LX-112 70 mg/kg oral daily 21 days. It is filed as in vivo, C57BL6J mice. The procedure:
as §1
The amount of IL6, an aging-related inflammation secretory factor (SASP), was measured in serum collected from mice in the same manner as in Example 7-5 using an enzyme-linked immunosorbent assay (ELISA Kit, purchased from R&D Systems).
For orientation: An ELISA detects its analyte on a solid surface through an enzyme-linked reagent.

A short description of experiment [3]: open field test in obesity-aged mice (Example 9-4). It is filed as in vivo, C57BL6J mice. Particulars: LX-112 70 mg/kg oral daily 21 days, DIO without LX = 100%. The procedure: (§2) 15-week-old male C57BL6J mice (purchased from Jackson Laboratories), whose obesity was induced by a high-fat diet, were adapted to the experimental environment for one week, and then the mice were randomized into an experimental group and a control group. LX-112 was mixed with 0.5% CMC-Na solution (purchased from Sigma) and administered orally at a concentration of 70 mg/kg daily for 21 days. The control group was administered only the solution in the same volume. After drug administration was completed, the method described in each Example below was performed. Mice were sacrificed and the weight of adipose tissue in each area was measured.
Accordingly, the open field test was performed to analyze lethargy due to anxiety and depression caused by obesity in mice using the same method as Example 7-7. […] Table 58 calculates the amounts of activity after aging induced by obesity as 100% and compares it with the amount of activity evaluation after treatment with LX-112.

Experiment [4] has as its system urea, creatinine, Agtr1a mRNA. In words: kidney damage markers in naturally aged mice (Example 7-8). It is filed as in vivo, C57BL6J mice. Particulars: LX-112 70 mg/kg oral daily 21 days, aged untreated = 100%. The procedure: After 22-month-old female C57BL6J mice (purchased from KRIBB Laboratory Animal Resource Center) were adapted to the experimental environment for one week, the aged mice were randomized into an experimental group and a control group. 8-week-old mice that were not aged were used as controls. LX-112 was mixed with 0.5% CMC-Na solution (purchased from Sigma) and administered orally at a concentration of 70 mg/kg daily for 21 days. The control group was administered only the solution in the same volume. After drug administration was completed, the method described in each Example below was performed.
The amounts of urea and creatinine, markers of kidney damage, in serum collected from mice were measured by spectrophotometry using a kit (purchased from BioAssay Systems and Sigma). Additionally, the amount of Agtr1a mRNA, a kidney damage marker, was measured by qRT-PCR as described in Example 7-2. […] The amount of each factor after inducing aging was calculated as 100% and compared with the amount of each factor after treatment with LX-112.

For experiment [5], the system named is p16, p21. In words: p16 and p21 mRNA qRT-PCR in obesity-aged (DIO) mice (Example 9-2). It is filed as in vivo, C57BL6J mice. Particulars: LX-112 70 mg/kg oral daily 21 days, DIO without LX = 100%. As to the method:
as §2
Mice were sacrificed in the same manner as in Example 7-2, RNA was extracted from the organ tissue of each region, and qRT-PCR (quantitative real-time PCR) was performed and analyzed using the synthesized cDNA. […] Table 54 calculates the mRNA amounts of p16 and p21 after aging induced by obesity as 100% and compares them with the mRNA amounts of p16 and p21 after treatment with LX-112.

The test system of the next experiment is IL6, activin A. In words: serum IL6 and activin A ELISA in obesity-aged mice (Example 9-3). It is filed as in vivo, C57BL6J mice. Particulars: LX-112 70 mg/kg oral daily 21 days. The procedure: as §2
Using the same method as in Example 7-5, the amount of IL6 and activin A, which are aging-related inflammation secretory factors (SASP), were measured in serum collected from mice using an enzyme-linked immunosorbent assay (ELISA Kit, purchased from R&D Systems).

Experiment [6] relates to normally proliferating foreskin cells. In words: survival of normally proliferating foreskin cells treated with medium supernatant (secreted fluid) of compound-killed cells (Example 13, Table 68). It is filed as cell-based, human. The settings on record: after 3 days. As to the method:
After treating cells with the test compound at a high concentration that induces the death of most cells in both non-senescence-induced and senescence-induced cells, the cells were washed three times with PBS to remove the test compound, and replaced with fresh medium and cultured for an additional 3 hours at the time when the compound has entered into the cell but has not yet induced cell death (approximately 1 to 3 hours after compound treatment). During this additional culture, by checking with an optical microscope, etc., the medium supernatants containing secreted fluid from normally proliferating and senescent cells in which cell death was induced were obtained. The obtained medium supernatant was replaced with the medium of normally proliferating and senescent cells, respectively, and cell survival rate was measured after 3 days.

As for `O=c1c2ccccc2[se]n1CCn1[se]c2ccccc2c1=O` [LX-112, 1,2-[bis(1,2-benzisoselenazolone-3(2H)-ketone)]ethane], in experiment [1] (LX-112 1.1 μM), the “Survival (%)” value was 59 (±6) %. Also, the “Survival (%)” value in experiment [1] (LX-112 10 μM) was 1 (±0.9) %. For the same molecule, in the experiment with p16, p21 [2], the “p16 mRNA (%) Kidney” value is recorded as 75 (±14.81) %, the “p16 mRNA (%) Liver” value was 70 (±8.3) %, the “p16 mRNA (%) eWAT” value was 72 (±18.75) % and the “p21 mRNA (%) Kidney” value is given as 83.8 (±9.5)^ %. Also, in the experiment on p16, p21 [2], the “p21 mRNA (%) Liver” value is 78 (±11.5) % and the “p21 mRNA (%) eWAT” value is listed as 68.4 (±15.1)^ %. Besides, the “IL6 (%)” value with IL6 is given as 69.8 (±12.2) %. In addition, in experiment [3], the “Open Field Test Time in Center (%)” value is recorded as 137.5 (±15) %. The “Agtr1a mRNA (%)” value in experiment [4] (kidney damage marker) was 64 (±7) %. For the same molecule, in experiment [4] (serum), the “Creatinine (%)” value is 87 (±7.8) % and the “Urea (%)” value is reported as 69 (±6) %. Also, in the experiment on p16, p21 [5], the “p16 mRNA (%) Liver” value worked out at 71.3%, the “p16 mRNA (%) Lung” value is recorded as 81%, the “p16 mRNA (%) Muscle” value is reported as 77.8% and the “p16 mRNA (%) Skin” value amounted to 79.1%. Besides, in the experiment on p16, p21 [5], the “p16 mRNA (%) asWAT” value was 84.1%, the “p16 mRNA (%) eWAT” value came out at 61.2%, the “p16 mRNA (%) iBAT” value stood at 89.2% and the “p16 mRNA (%) iWAT” value stood at 79.1%. Also, in the experiment on p16, p21 [5], the “p21 mRNA (%) Liver” value is 62.9%, the “p21 mRNA (%) Lung” value came to 79.3%, the “p21 mRNA (%) Muscle” value is 73.2% and the “p21 mRNA (%) Skin” value was 78.1%. In addition, in the experiment on p16, p21 [5], the “p21 mRNA (%) asWAT” value worked out at 82.1%, the “p21 mRNA (%) eWAT” value is listed as 67.2%, the “p21 mRNA (%) iBAT” value turned out to be 70% and the “p21 mRNA (%) iWAT” value is 71.2%. For the same molecule, in the experiment on IL6, activin A, the “Activin A (%)” value is recorded as 64.5 (±12.3) % and the “IL6 (%)” value is reported as 51.8 (±14.2) %.
Consider `COC(=O)c1ccc([C@H]2c3[nH]c4ccccc4c3C[C@H](C(=O)OC)N2C(=O)CCl)cc1` [LX-405], for which the “Survival (%)” value is 99.4 (±2.4) % in experiment [6] (supernatant from compound-treated medium without cells (No Cells)), 104 (±3) % in experiment [6] (supernatant from death-induced proliferating foreskin cells (compound 30 μM)) and 100.2 (±5.6) % in experiment [6] (supernatant from death-induced senescent foreskin cells (compound 30 μM)).
